Changes are numbered by the printed parent chain.
What was measured:
Conditions in all cases: at 1 µM
[1] = molecular target: Receptor-type tyrosine-protein kinase FLT3 (Homo sapiens) (UniProt P36888); test: (§1) Selectivity interaction (KinomeScan (DiscoverX)) EUB0001079a FLT3
[2] = test system: T1, Receptor-type tyrosine-protein kinase FLT3 (Homo sapiens), P36888 [D835H]; test: as §1
T1 sequence (whole entry): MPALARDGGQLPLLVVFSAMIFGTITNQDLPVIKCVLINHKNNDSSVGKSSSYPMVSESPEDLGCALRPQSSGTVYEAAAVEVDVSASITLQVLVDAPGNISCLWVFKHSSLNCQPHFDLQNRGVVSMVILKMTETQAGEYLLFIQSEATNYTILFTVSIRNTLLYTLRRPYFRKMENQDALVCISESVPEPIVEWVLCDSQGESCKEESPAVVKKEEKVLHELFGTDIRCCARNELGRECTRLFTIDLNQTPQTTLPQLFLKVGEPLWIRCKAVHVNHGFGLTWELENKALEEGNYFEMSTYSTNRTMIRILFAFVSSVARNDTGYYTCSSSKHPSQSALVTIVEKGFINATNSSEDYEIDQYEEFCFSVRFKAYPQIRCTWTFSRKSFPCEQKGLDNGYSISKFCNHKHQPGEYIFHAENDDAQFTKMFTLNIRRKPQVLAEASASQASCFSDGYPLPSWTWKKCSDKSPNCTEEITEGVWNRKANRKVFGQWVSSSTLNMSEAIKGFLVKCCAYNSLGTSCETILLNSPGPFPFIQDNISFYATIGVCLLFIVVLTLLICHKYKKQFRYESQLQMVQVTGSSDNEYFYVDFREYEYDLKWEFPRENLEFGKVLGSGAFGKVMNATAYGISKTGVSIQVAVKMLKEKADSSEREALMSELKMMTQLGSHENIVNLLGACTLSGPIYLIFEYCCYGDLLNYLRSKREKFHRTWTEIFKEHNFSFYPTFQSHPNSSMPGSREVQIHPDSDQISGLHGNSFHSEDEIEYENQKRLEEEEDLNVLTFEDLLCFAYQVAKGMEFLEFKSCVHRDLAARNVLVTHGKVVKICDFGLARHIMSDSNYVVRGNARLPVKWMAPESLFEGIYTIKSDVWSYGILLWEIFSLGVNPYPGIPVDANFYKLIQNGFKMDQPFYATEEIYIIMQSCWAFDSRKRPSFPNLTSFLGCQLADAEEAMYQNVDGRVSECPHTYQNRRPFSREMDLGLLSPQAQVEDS

[3] = test system: T2, Receptor-type tyrosine-protein kinase FLT3 (Homo sapiens), P36888 [D835V]; test: as §1
T2 sequence (whole entry): T1 sequence (whole entry) with H835V

[4] = test system: T3, Receptor-type tyrosine-protein kinase FLT3 (Homo sapiens), P36888 [D835Y]; test: as §1
T3 sequence (whole entry): T1 sequence (whole entry) with H835Y

Nc1cnc(N2CCc3cc(S(=O)(=O)Nc4c(F)cc(Cl)cc4F)cc(N4CCCC4=O)c32)nc1 [TP-020n]
% of control [1]: 81%
% of control [2]: 100%
% of control [3]: 100%
% of control [4]: 100%

From ChEMBL document CHEMBL5465560, “Selectivity Literature for EUbOPEN Chemogenomic Library” (2024)
